Non-standard residues stand in square brackets, D forms with d. Residues, ends and D or L forms follow the SMILES beside them. ξ: configuration not given here. *: point of attachment. Dansyl = CN(C)c1cccc2c(S(=O)(=O)*)cccc12; ξPip = O=C(O)C1CCCCN1

Test system in the first series: not listed separately
The series can be described thus: acute toxicity (LD50), intraperitoneal administration in mice. It counts as in vivo, mice (male, 20 g). Conditions: comparison with N^2 -dansyl-L-argininamides; route and species not restated.
`CCCCNC(=O)[C@H](CCCNC(=N)N)NS(=O)(=O)c1cccc2c(N(C)C)cccc12` [N^2 -dansyl-N-butyl-L-argininamide, reference compound]: the “LD50 values (comparison dansyl compounds)” value is listed as 75 milligrams per kilogram. As for `CCCCN(C)C(=O)[C@H](CCCNC(=N)N)NS(=O)(=O)c1cccc2c(N(C)C)cccc12` [N^2 -dansyl-N-methyl-N-butyl-L-argininamide, reference compound], the “LD50 values (comparison dansyl compounds)” value turned out to be 70 milligrams per kilogram.

The same series, now with this note: intraperitoneal, mice (male, 20 g).
In the case of `COc1cc2ccc(S(=O)(=O)N[C@@H](CCCNC(=N)N)C(=O)N(CC(=O)O)C3CCCCC3)cc2cc1OC` [N^2-(6,7-dimethoxy-2-naphthylsulfonyl)-L-arginyl-N-cyclohexylglycine], the LD50 is recorded as > 1,500 mg/kg.

Still in this series, the particulars now being: mouse, in vivo, ip, intraperitoneal, mice (male, 20 g); read-out: LD50.
For `CC1CCN(C(=O)[C@H](CCCNC(=N)N)NS(=O)(=O)c2cccc3ccccc23)C(C(=O)O)C1` (stereo partly drawn) [1-N^2-(1-naphthylsulfonyl)-L-arginyl!-4-methyl-2-piperidinecarboxylic acid], the LD50 lay in the range of 700 to 1000 mg/kg. Still for that read-out and setting: as for `CN(C)c1cccc2c(S(=O)(=O)N[C@@H](CCCNC(=N)N)C(=O)N3CCCCC3C(=O)O)cccc12` (stereo partly drawn) [1-N^2-(5-dimethylamino-1-naphthylsulfonyl)-L-arginyl!-2-piperidinecarboxylic acid] (Dansyl-Arg-[ξPip]-OH), the figure is 700 to 1000 mg/kg; as for `COc1cc2ccc(S(=O)(=O)N[C@@H](CCCNC(=N)N)C(=O)N3Cc4ccccc4CC3C(=O)O)cc2cc1OC` (stereo partly drawn) [2-N^2-(6,7-dimethoxy-2-naphthylsulfonyl)-L-arginyl!-1,2,3,4-tetrahydroisoquinoline-3-carboxylic acid], > 1000 mg/kg. Still for that read-out and setting: as for `COc1cc2ccc(S(=O)(=O)N[C@@H](CCCNC(=N)N)C(=O)N3Cc4ccccc4C3C(=O)O)cc2cc1OC` (stereo partly drawn) [2-N^2-(6,7-dimethoxy-2-naphthylsulfonyl)-L-arginyl!-1-isoindolinecarboxylic acid], the figure is > 1000 mg/kg; as for `COc1ccc2ccc(S(=O)(=O)N[C@@H](CCCNC(=N)N)C(=O)N3CCOCC3C(=O)O)cc2c1` (stereo partly drawn) [4-N^2-(7-methoxy-2-naphthylsulfonyl)-L-arginyl!-3-morpholinecarboxylic acid], > 1000 mg/kg.

For the compound `COCCN(CC(=O)O)C(=O)[C@H](CCCNC(=N)N)NS(=O)(=O)c1cc(OC)c2cc(OC)ccc2c1` [N^2-(4,6-dimethoxy-2-naphthylsulfonyl)-L-arginyl-N-(2-methoxyethyl)glycine], the median lethal dose (LD50) was 660 to 1000 mg/kg.

Regarding `COc1ccc2cc(S(=O)(=O)N[C@@H](CCCNC(=N)N)C(=O)N(CC3CCCCC3)[C@@H](C)C(=O)O)cc(OC)c2c1` [N^2-(4,6-dimethoxy-2-naphthylsulfonyl)-L-arginyl-N-cyclohexylmethylalanine], the LD50 is > 1500 mg/kg. Still for that read-out and setting: the result for `CCOCCN(CCC(=O)O)C(=O)[C@H](CCCNC(=N)N)NS(=O)(=O)c1ccc2cc(OC)c(OC)cc2c1` [N^2-(6,7-dimethoxy-2-naphthylsulfonyl)-L-arginyl-N-(2-ethoxyethyl)-β-alanine] reads 660 to 1000 mg/kg; that for `CCSCCN(CC(=O)O)C(=O)[C@H](CCCNC(=N)N)NS(=O)(=O)c1ccc2cc(OC)c(OC)cc2c1` [N^2-(6,7-dimethoxy-2-naphthylsulfonyl)-L-arginyl-N-(2-ethylthioethyl)glycine], > 1000 mg/kg; that for `COCCN(CC(=O)O)C(=O)[C@H](CCCNC(=N)N)NS(=O)(=O)c1ccc2cc(OC)c(OC)cc2c1` [N^2-(6,7-dimethoxy-2-naphthylsulfonyl)-L-arginyl-N-(2-methoxyethyl)glycine], 1900 to 2400 mg/kg. Still for that read-out and setting: the result for `CCCCN(C(=O)[C@H](CCCNC(=N)N)NS(=O)(=O)c1ccc2cc(OC)c(OC)cc2c1)[C@@H](C)C(=O)O` [N^2-(6,7-dimethoxy-2-naphthylsulfonyl)-L-arginyl-N-butylalanine] reads > 1500 mg/kg. As for `COc1cc2ccc(S(=O)(=O)N[C@@H](CCCNC(=N)N)C(=O)N(CC(=O)O)C3CCCCC3)cc2cc1OC` [N^2-(6,7-dimethoxy-2-naphthylsulfonyl)-L-arginyl-N-cyclohexylglycine], the LD50 amounted to 1500 mg/kg. The same measure, in the same setting: the result for `COc1cc2ccc(S(=O)(=O)N[C@@H](CCCNC(=N)N)C(=O)N(CC(=O)O)CC3CCCCC3)cc2cc1OC` [N^2-(6,7-dimethoxy-2-naphthylsulfonyl)-L-arginyl-N-cyclohexylmethylglycine] reads > 1500 mg/kg; that for `COc1cc2ccc(S(=O)(=O)N[C@@H](CCCNC(=N)N)C(=O)N(CC(=O)O)CC3CCCO3)cc2cc1OC` (stereo partly drawn) [N^2-(6,7-dimethoxy-2-naphthylsulfonyl)-L-arginyl-N-tetrahydrofurfurylglycine], 620 mg/kg. For the compound `COCCN(CC(=O)O)C(=O)[C@H](CCCNC(=N)N)NS(=O)(=O)c1ccc2ccc(OC)cc2c1` [N^2-(7-methoxy-2-naphthylsulfonyl)-L-arginyl-N-(2-methoxyethyl)glycine], the 50% lethal dose (LD50) worked out at 2000 mg/kg. The same measure, in the same setting: as for `Cc1ccc2ccc(S(=O)(=O)N[C@@H](CCCNC(=N)N)C(=O)N(CC(=O)O)CC3CCCO3)cc2c1` (stereo partly drawn) [N^2-(7-methyl-2-naphthylsulfonyl)-L-arginyl-N-tetrahydrofurfurylglycine], the figure is 600 mg/kg.

In another series the target is T1, thrombin (Bos taurus, UniProt P00735).
T1 construct: clotting of bovine fibrinogen
The series can be described thus: fibrinogen coagulation time (concentration required to prolong the coagulation time by a factor of two). It counts as biochemical. Conditions: bovine fibrinogen, thrombin 5 units/ml, borate saline buffer pH 7.4, 25° C; control 50-55 seconds prolonged to 100-110 seconds. How it is done: The measurement of the fibrinogen coagulation time was conducted as follows:
Immediately after mixing, the reaction mixture was transferred from the ice bath to a bath maintained at 25° C. Coagulation times were taken as the period between the time of transference to the 25° C bath and the time of the first appearance of fibrin threads. […] The term "concentration required to prolong the coagulation time by a factor of two" is the concentration of an active ingredient required to prolong the normal coagulation time 50-55 seconds to 100-110 seconds.
`COc1ccc2ccc(S(=O)(=O)N[C@@H](CCCNC(=N)N)C(=O)N(CC[S+](C)[O-])CC(=O)O)cc2c1` (some centres unmarked) [compound 222] came in with an IC (2-fold clotting time) of 6.5 µM.
